Legend:
[1] = test system: serum bile acids; assay: Phase 1 ascending multiple oral doses of LUM001 in healthy adults: serum bile acid analysis; type: in vivo, human; settings: 28 days
Method: This Phase 1 study was a randomized, double-blind, placebo-controlled study of ascending multiple oral doses of LUM001 in healthy, adult subjects. This study was conducted at a single center. There were 13 LUM001 dosing panels: 10, 20, 60, 100, and 20 mg every morning (qAM) (2) (i.e., the regimen was tested a second time in the study), 5 mg every evening (qPM), 0.5, 1, 2.5, 5, 2.5 (2), 5 (2), and 0.5 to 5 mg qAM dose titration. Most of the dosing panels included subjects treated with matching placebo. No subject participated in more than 1 dosing panel. Subjects were randomized into the study by dosing panel, and all subjects within a dosing panel received study medication at approximately the same time each day. Safety was reviewed for each panel before subsequent panels were initiated. A total of 167 subjects were treated for 28 days, 147 with LUM001 and 20 with placebo. […]
On Day 1 of the Treatment Period, subjects who qualified for enrollment were randomized in the order in which they were admitted to the research facility. […] The safety and tolerability of LUM001 were evaluated by physical examination, ascertainment of adverse signs and symptoms, and clinical laboratory studies. […]
SBA were analyzed as part of the routine clinical analysis of the serum samples collected at each time point.

[2] = test system: serum bile acids; assay: Time to onset of activity of LUM001 on postprandial serum total bile acids (SBA) in beagle dogs; type: in vivo; settings: dog SBA model, oral, 1 hour after feeding
Method: LUM001 was dissolved in water at concentrations that required the administration of 0.2 ml/kg of solution. Solutions were placed into gelatin capsules, Torpac Inc., size 13 Batch 594, East Hanover N.J., and administered orally.
Male beagle dogs were obtained from Covance Research Products, Cumberland Va. or Marshall Farms USA, Inc., North Rose N.Y. A total of 20 dogs, 1 to 5 years old, 6.8 to 15.6 kg body weight, were used in these experiments. The dogs were conditioned to a 12 hour light/dark cycle and maintained on a feeding restriction of 1 hour per day access to food (Richman Standard Certified Canine Diet #5007, PMI Nutrition, Inc., St. Louis Mo.) from 7 to 8 AM. They were trained to eat a special meal promptly within 20 minutes when presented (1 can. 397 g, Evanger's 100% Beef for Dogs, Evanger's Dog and Cat Food Co., Inc., Wheeling Ill., mixed with 50 g of sharp cheddar cheese.).
SBA was measured by an enzymatic assay. SBA values are expressed as […] of total bile acids/ml of serum.
To estimate the details of this plateau, 6 dogs were given a test meal and blood samples for SBA measurement were collected at −30, 0, 30, 60, 65, 70, 80, 90, 120, 180, 240, 360, 480, 720, 1410 and 1440 minutes from the time of feeding. Any remaining food was removed 20 min after it was first presented to the dogs. […]

## CCCCC1(CCCC)CS(=O)(=O)c2ccc(N(C)C)cc2[C@@H](c2ccc(OCc3ccc(C[N+]45CCN(CC4)CC5)cc3)cc2)[C@H]1O [LUM001]
[1]
  effect on serum bile acids: significant reduction
[2]
  threshold dose: 0.05 mg/kg
